Laboratory results published in US20150291570A1, “Substituted N-(tetrazol-5-yl)- and N-(triazol-5-yl)arylcarboxamide compounds and their use as herbicides” (BASF SE, priority 2012, published 2015).

Key:
Type in all cases: in vivo
[1] = test system: Abutilon theophrasti (velvetleaf); assay: Greenhouse post-emergence treatment of Abutilon theophrasti; settings: application rate 1000 g/ha, scale 0 (no damage) to 100 (complete destruction)
Text: (§1) The seeds of the test plants were sown separately for each species. For the post-emergence treatment, the test plants were first grown to a height of 3 to 15 cm, depending on the plant habit, and only then treated with the active ingredients which had been suspended or emulsified in water. For this purpose, the test plants were either sown directly and grown in the same containers, or they were first grown separately as seedlings and transplanted into the test containers a few days prior to treatment. Depending on the species, the plants were kept at 10-25° C. or 20-35° C. The test period extended over 2 to 4 weeks. During this time, the plants were tended, and their response to the individual treatments was evaluated. Evaluation was carried out using a scale from 0 to 100. 100 means no emergence of the plants, or complete destruction of at least the aerial moieties, and 0 means no damage, or normal course of growth. A good herbicidal activity is given at values of at least 70 and a very good herbicidal activity is given at values of at least 85. The plants used in the greenhouse experiments belonged to the following species: [table]

[2] = test system: Echinochloa crus-galli (barnyard grass); assay: Greenhouse post-emergence treatment of Echinochloa crus-galli; settings: application rate 1000 g/ha, scale 0 to 100
Text: as §1

[3] = test system: Amaranthus retroflexus L. (pigweed); assay: Greenhouse pre-emergence treatment of Amaranthus retroflexus; settings: application rate 1000 g/ha, scale 0 to 100
Text: The seeds of the test plants were sown separately for each species. For the pre-emergence treatment, the active ingredients, which had been suspended or emulsified in water, were applied directly after sowing by means of finely distributing nozzles. The containers were irrigated gently to promote germination and growth and subsequently covered with transparent plastic hoods until the plants had rooted. This cover caused uniform germination of the test plants, unless this has been impaired by the active ingredients. Depending on the species, the plants were kept at 10-25° C. or 20-35° C. The test period extended over 2 to 4 weeks. During this time, the plants were tended, and their response to the individual treatments was evaluated. Evaluation was carried out using a scale from 0 to 100. 100 means no emergence of the plants, or complete destruction of at least the aerial moieties, and 0 means no damage, or normal course of growth. A good herbicidal activity is given at values of at least 70 and a very good herbicidal activity is given at values of at least 85. The plants used in the greenhouse experiments belonged to the following species: [table]

| SMILES | damage [%] [1] [%] | damage [%] [2] [%] | damage [%] [3] [%] |
| --- | --- | --- | --- |
| CON=C1CCS(=O)(=O)c2ccc(C(=O)Nc3ncnn3C)c(C)c21 [I.A-47] | 100 | 95 | 70 |
| CON=C1CCS(=O)(=O)c2ccc(C(=O)Nc3nnnn3C)c(C)c21 [V.A-47] | 100 | 100 | 100 |
